Measurements reported in patent US4939156A (priority 1987, dated 1990).
Values after ≈ are worked out from the molar mass of the structure shown.

Columns and labels:
[1] = system: human premyelocytic leukemia cells (HL-60); experiment: 50% inhibition of propagation of undifferentiated human premyelocytic leukemia HL-60 cells; assay type: cell-based; conditions: 144 h, 6 days incubation, read-out: Activity of test compound to inhibit by 50% the undifferentiated propagation of HL-60 cells (IC50)
Description: (§1) The human premyelocytic elukemia cells (HL-60 cell) are characterized by the ability to respond to pharmacological inducers of differentiation and can produce the normal granulocytes when they have been differentiated, as described in the "Blood" Vol. 54, No. 3, 713-733 (1979).
(§2) Thus, firstly the cell differentiation-inducing activity of the compound was assayed by the following procedure described in said "Blood". Namely, HL-60 cells were incubated by passing successively through RPMI 1640 media supplemented with 10% FCS (fetal calf serum), followed by adding the test compound at varying concentrations to aliquots of the culture of the HL-60 cells at the logarithmic phase of growth. The HL-60 cells thus incubated were further incubated in the presence of the test compound for 6 days and subsequently fixed to slide glasses. The fixed HL-60 cells were stained with May-Gruenwald-Giemsa's reagent and the morphology of the nuclei in the stained cells was examined to judge which of the cells has been differentiated into the normal granulocytes. Then, the number of the HL-60 cells which had propagated were counted.
As said "IC50 " concentration of the test compound was assumed such concentration of the test compound at which the counted number of the HL-60 cells having propagated was reduced by 50%, as compared to that counted in the control tests where the test compound was not used.

[2] = system: human premyelocytic leukemia cells (HL-60); experiment: NBT-reducing ability (differentiation) of HL-60 cells after treatment with test compound; assay type: cell-based; conditions: 0.1% NBT, 37° C., 20 minutes
Description: as §1, §2
Secondly, the another aliquot of the culture of the HL-60 cells which were incubated in the above procedure in the presence of the test compound at its evaluated "IC50 " concentration was centrifuged to collect the cells, which were then diluted with a volume of RPMI 1640 medium supplemented with 10% FCS, to provide a given concentration of the cells. Subsequently, the cells which were diluted with said medium were added and mixed with 0.1% of NBT and then incubated at 37° C. for 20 minutes. The number of the cells which stained black color owing to the involved reduction of NBT and which could be judged to have the ability to reduce NBT was counted.

[3] = system: Influenza virus A/PR/8/34 strain; experiment: Antiviral activity, Virus No. 1 infested MDCK cell; assay type: cell-based; conditions: for IC50: PR/8, MDCK, 48 h, read-out: Inhibitory Concentration (IC50) which inhibited by 50% the denaturation of Virus No. 1 infested MDCK cell; for Quotient of minimum denaturation concentration divided by IC50, Virus No. 1: figures in brackets, MDCK cell, Influenza virus, 2880 min
[4] = system: Newcastle disease virus (NDV) Miyadera strain; experiment: microbe, parasite or virus in culture; assay type: cell-based; conditions: for IC50: avian paramyxovirus 1, 48 h, read-out: Inhibitory Concentration (IC50) which inhibited by 50% the denaturation of Virus No. 2 infested HeLa-Y cell; for Quotient of minimum denaturation concentration divided by IC50, Virus No. 2: figures in brackets, HeLa-Y cell, NDV, 2880 min
[5] = system: vesicular stomatitis virus (VSV) New Jersey strain; experiment: microbe, parasite or virus in culture; assay type: cell-based; conditions: for IC50: Vesicular stomatitis virus, L929, 48 h, read-out: Inhibitory Concentration (IC50) which inhibited by 50% the denaturation of Virus No. 3 infested L-929 cell; for Quotient of minimum denaturation concentration divided by IC50, Virus No. 3: figures in brackets, L-929 cell, VSV, 2880 min
[6] = system: Vaccinia virus Lister strain; experiment: organism not typed; assay type: cell-based; conditions: for IC50: 48 h, read-out: Inhibitory Concentration (IC50) which inhibited by 50% the denaturation of Virus No. 4 infested HeLa-Y cell; for Quotient of minimum denaturation concentration divided by IC50, Virus No. 4: figures in brackets, HeLa-Y cell, Vaccinia virus, 2880 min
[7] = system: Herpes simplex virus (HSV) Type 2 196 strain; experiment: Antiviral activity, Virus No. 5 infested Vero cell; assay type: cell-based; conditions: for IC50: 48 h, HSV Type 2, Vero cell, read-out: Inhibitory Concentration (IC50) which inhibited by 50% the denaturation of Virus No. 5 infested Vello cell; for Quotient of minimum denaturation concentration divided by IC50, Virus No. 5: figures in brackets, Vero cell, HSV Type 2
[8] = in vitro; conditions: human, hela-y cells
[9] = in vitro; conditions: monkey, vero cells
[10] = in vitro; conditions: mouse, l-929 cells
[11] = in vitro; conditions: dog, mdck
[12] = system: mice; experiment: Acute toxicity in mice given i.p.; assay type: in vivo; conditions: twice a day, 4 days, counted at 5th day
Description: For estimation of toxicity of the new compounds of this invention for mammalian animals, acute toxicity of the TI-27 Substance of Example 1 as a representative example was tested by intraperitoneal administration of a suspension of 25 mg/ml of TI-27 substance in a 0.5% aqueous solution of carboxymethyl cellulose (CMC) to mice (five in each group). The TI-27 substance was given to mice twice a day at a unit dosage of 5 mg, 1.25 mg, 0.313 mg, 0.078 mg or 0.02 mg per mouse for consecutive 4 days, totally 8 times. The number of the surviving mice which tolerated the administration of TI-27 Substance was counted at the 5th day of the tests.

Structure (SMILES)	IC50 [1] [µg/mL]	Percent of the number of the cells showing the NBT-reducing ability after treatment with test compound at IC50 concentration [2] [%]	IC50 [3] [µg/mL]	Quotient of minimum denaturation concentration divided by IC50, Virus No. 1 [3]	IC50 [4] [µg/mL]	Quotient of minimum denaturation concentration divided by IC50, Virus No. 2 [4]	IC50 [5] [µg/mL]	Quotient of minimum denaturation concentration divided by IC50, Virus No. 3 [5]	IC50 [6] [µg/mL]	Quotient of minimum denaturation concentration divided by IC50, Virus No. 4 [6]	IC50 [7] [µg/mL]	Quotient of minimum denaturation concentration divided by IC50, Virus No. 5 [7]	MCC at 48 h [8] [µg/mL]	MCC at 48 h [9] [µg/mL]	MCC at 48 h [10] [µg/mL]	MCC at 48 h [11] [µg/mL]	further results
CC1(C)C2N(Cc3ccccc3)C(=O)N(Cc3ccccc3)C(=O)C2(F)C1(C)C (stereo not shown) [TI-66 Substance, 2,4-dibenzyl-6-fluoro-7,7,8,8-tetramethyl-2,4-diaza-bicyclo{4.2.0}octane-3,5-dione]	7 (≈ 17.7 µM)	65	> 200	< 1.25	> 25	< 0.62	18.8 (≈ 47.7 µM)	0.83	> 25	< 0.62	> 100	< 0.63	15.6	62.5	15.6	250	
CN1C(=O)NC2C(C)(C)C(C)(C)C2(F)C1=O (stereo not shown) [TI-61 Substance, 6-fluoro-4,7,7,8,8-pentamethyl-2,4-diaza-bicyclo{4.2.0}octane-3,5-dione]	39 (≈ 171 µM)	18	188 (≈ 824 µM)	1.33	> 125	< 1.00	93.8 (≈ 411 µM)	1.33	> 125	< 1.00	93.8 (≈ 411 µM)	1.33	125	125	125	250	
Nc1nc2c(ncn2COCCO)c(=O)[nH]1 [Acyclovir, reference compound]											1.17 (≈ 5.2 µM)	> 855		> 1000			
CCN1C(=O)NC(=O)C2(F)C1C(C)(C)C2(C)C (stereo not shown) [TI-62 Substance, 2-ethyl-6-fluoro-7,7,8,8-tetramethyl-2,4-diaza-bicyclo{4.3.0}octane-3,5-dione]	9 (≈ 37.1 µM)	34	> 500	< 2.00	> 250	< 1.00	> 125	< 2.00	> 250	< 1.00	> 250	< 2.00	250	500	250	1000	
CC1(C)O[C@@H]2[C@H](O1)[C@@H](CO)O[C@H]2N1C(=O)NC(=O)C2C1C(C)(C)C2(C)C (stereo partly drawn) [TI-28 Substance, 7,7,8,8-tetramethyl-2-(2',3'-isopropylidene-ribofuranosyl)-cis-2,4-diaza-bicyclo{4.2.0}octane-3,5-dione]	62.5 (≈ 170 µM)	37	750 (≈ 2040 µM)	1.33	> 1000		1000 (≈ 2710 µM)	1.0	> 1000		> 1000	< 1.0	> 1000	> 1000	> 1000	1000	
NC12CC3CC(CC(C3)C1)C2 [Amantadine, reference compound]			50 (≈ 331 µM)	5.0												250	
CCN1C(=O)[C@@H]2[C@H](N(CC)C1=O)C(C)(C)C2(C)C (relative stereo) [TI-16 Substance, 2,4-diethyl-7,7,8,8-tetramethyl-cis-2,4-diaza-bicyclo{4.2.0}octane-3,5-dione]	17 (≈ 67.4 µM)	69	375 (≈ 1490 µM)	2.67	> 250	< 1.0	> 500	< 1.0	> 250	< 1.0	375 (≈ 1490 µM)	1.33	250	500	500	1000	
CN1C(=O)[C@@H]2[C@H](N(C)C1=O)C(C)(C)C2(C)C (relative stereo) [TI-27 Substance, 2,4,7,7,8,8-hexamethyl-cis-2,4-diaza-bicyclo{4.2.0}octane-3,5-dione]	35 (≈ 156 µM)	51	188 (≈ 838 µM)	5.32	> 250	< 1.0	> 500	< 1.0	> 250	< 1.0	> 500	< 1.0	250	500	250	1000	Number of surviving mice/number of mice tested ([12]; 0.02 mg/mouse i.p.): 5/5; Number of surviving mice/number of mice tested ([12]; 0.078 mg/mouse i.p.): 5/5; Number of surviving mice/number of mice tested ([12]; 0.313 mg/mouse i.p.): 5/5; Number of surviving mice/number of mice tested ([12]; 1.25 mg/mouse i.p.): 1/5; Number of surviving mice/number of mice tested ([12]; 5 mg/mouse i.p.): 0/5
CCN1C(=O)N(CC)C2C(C)(C)C(C)(C)C2(F)C1=O (stereo not shown) [TI-65 Substance, 2,4-diethyl-6-fluoro-7,7,8,8-tetramethyl-2,4-diaza-bicyclo{4.2.0}octane-3,5-dione]	36 (≈ 133 µM)	20	375 (≈ 1390 µM)	2.67	> 250	< 1.00	> 125	< 2.00	> 250	< 1.00	188 (≈ 695 µM)	2.66	250	500	250	1000	
